How the values were obtained:
Assay in all cases: fitness (endpoint OD595 vs no drug) (fraction); higher = more growth
B. subtilis 168 = tested on: B. subtilis 168
Outline: (§1)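 Bacterial fitness was scored as optical density at the stationary-phase transition relative to the robust mean of no-drug control wells. Scores are capped at 1. The growth data were OD595 readings every 30 min for 14 h at 37 °C, background-subtracted against the first reading, from 384-well plates inoculated at OD595 0.01 in TSB, LB Lennox or CY.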

S. aureus DSM 20231 = tested on: S. aureus DSM 20231
Outline: as §1

S. pneumoniae D39V = tested on: S. pneumoniae D39V
Outline: as §1
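Note: OD595 on entry to stationary phase over no-drug wells; at most 1.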

CN(C)[C@@H]1C(O)=C(C(N)=O)C(=O)[C@@]2(O)C(O)=C3C(=O)c4c(O)ccc(Cl)c4[C@@](C)(O)[C@H]3C[C@@H]12 [Chlortetracycline] + C[n+]1ccc(-c2cc[n+](C)cc2)cc1 [Paraquat]
fitness
Settings	partner 1.25 µg/mL	partner 1.5 µg/mL	partner 2.5 µg/mL	partner 3 µg/mL	partner 5 µg/mL	partner 6 µg/mL
B. subtilis 168, first compound 0.0475 µg/mL	0.92	–	0.877	–	0.839	–
B. subtilis 168, first compound 0.095 µg/mL	0.805	–	0.748	–	0.715	–
B. subtilis 168, first compound 0.19 µg/mL	0.609	–	0.524	–	0.429	–
S. aureus DSM 20231, first compound 0.012 µg/mL	0.568	–	0.597	–	0.574	–
S. aureus DSM 20231, first compound 0.024 µg/mL	0.266	–	0.294	–	0.261	–
S. aureus DSM 20231, first compound 0.048 µg/mL	0.0591	–	0.169	–	0.0904	–
S. pneumoniae D39V, first compound 0.375 µg/mL	–	0.073	–	0.0531	–	0.0597
S. pneumoniae D39V, first compound 0.75 µg/mL	–	0.055	–	0.0649	–	0.0514
S. pneumoniae D39V, first compound 1.5 µg/mL	–	0.048	–	0.0551	–	0.0491

fitness, one replicate
Settings	partner 1.25 µg/mL	partner 1.5 µg/mL	partner 2.5 µg/mL	partner 3 µg/mL	partner 5 µg/mL	partner 6 µg/mL
S. aureus DSM 20231, first compound 0.006 µg/mL	0.72	–	0.718	–	0.704	–
S. pneumoniae D39V, first compound 0.012 µg/mL	–	0.976	–	≥ 1	–	≥ 1
S. pneumoniae D39V, first compound 0.024 µg/mL	–	0.941	–	0.95	–	0.987
S. pneumoniae D39V, first compound 0.048 µg/mL	–	0.852	–	0.868	–	0.875

CN(C)[C@@H]1C(O)=C(C(N)=O)C(=O)[C@@]2(O)C(O)=C3C(=O)c4c(O)ccc(Cl)c4[C@@](C)(O)[C@H]3C[C@@H]12 [Chlortetracycline] + CO/N=C(\C(=O)N[C@@H]1C(=O)N2C(C(=O)O)=C(COC(C)=O)CS[C@H]12)c1csc(N)n1 [Cefotaxime]
fitness, one replicate
Settings	partner 0.00775 µg/mL	partner 0.0155 µg/mL	partner 0.031 µg/mL	partner 0.039 µg/mL	partner 0.0625 µg/mL	partner 0.078 µg/mL	partner 0.125 µg/mL	partner 0.156 µg/mL	partner 0.25 µg/mL	partner 0.312 µg/mL
B. subtilis 168, first compound 0.0475 µg/mL	0.783	0.597	0.5	–	0.532	–	0.381	–	0.326	–
B. subtilis 168, first compound 0.095 µg/mL	0.703	0.536	0.38	–	0.458	–	0.283	–	0.186	–
B. subtilis 168, first compound 0.19 µg/mL	0.413	0.149	0.0377	–	0.135	–	0.0644	–	0.06	–
S. aureus DSM 20231, first compound 0.006 µg/mL	–	–	–	0.775	–	0.689	–	0.677	–	0.635

Settings	fitness
B. subtilis 168, first compound 0.0475 µg/mL, partner 0.5 µg/mL	0.326
B. subtilis 168, first compound 0.0475 µg/mL, partner 1 µg/mL	0.19
B. subtilis 168, first compound 0.0475 µg/mL, partner 2 µg/mL	0.147
B. subtilis 168, first compound 0.095 µg/mL, partner 0.5 µg/mL	0.199
B. subtilis 168, first compound 0.095 µg/mL, partner 1 µg/mL	0.0513
B. subtilis 168, first compound 0.095 µg/mL, partner 2 µg/mL	0.117
B. subtilis 168, first compound 0.19 µg/mL, partner 0.5 µg/mL	0.129
B. subtilis 168, first compound 0.19 µg/mL, partner 1 µg/mL	0.0806
B. subtilis 168, first compound 0.19 µg/mL, partner 2 µg/mL	0.111
S. aureus DSM 20231, first compound 0.012 µg/mL, partner 0.039 µg/mL	0.533
S. aureus DSM 20231, first compound 0.012 µg/mL, partner 0.078 µg/mL	0.608
S. aureus DSM 20231, first compound 0.012 µg/mL, partner 0.156 µg/mL	0.561
S. aureus DSM 20231, first compound 0.012 µg/mL, partner 0.312 µg/mL	0.44
S. aureus DSM 20231, first compound 0.024 µg/mL, partner 0.312 µg/mL	0.271
S. aureus DSM 20231, first compound 0.048 µg/mL, partner 0.039 µg/mL	0.258
S. aureus DSM 20231, first compound 0.048 µg/mL, partner 0.078 µg/mL	0.137
S. aureus DSM 20231, first compound 0.048 µg/mL, partner 0.156 µg/mL	0.125
S. aureus DSM 20231, first compound 0.048 µg/mL, partner 0.312 µg/mL	0.108
S. pneumoniae D39V, first compound 0.012 µg/mL, partner 0.0018 µg/mL	0.88
S. pneumoniae D39V, first compound 0.012 µg/mL, partner 0.0035 µg/mL	0.94
S. pneumoniae D39V, first compound 0.012 µg/mL, partner 0.007 µg/mL	0.885
S. pneumoniae D39V, first compound 0.024 µg/mL, partner 0.0018 µg/mL	0.664
S. pneumoniae D39V, first compound 0.024 µg/mL, partner 0.0035 µg/mL	0.641
S. pneumoniae D39V, first compound 0.024 µg/mL, partner 0.007 µg/mL	0.629
S. pneumoniae D39V, first compound 0.048 µg/mL, partner 0.0018 µg/mL	0.301
S. pneumoniae D39V, first compound 0.048 µg/mL, partner 0.0035 µg/mL	0.251
S. pneumoniae D39V, first compound 0.048 µg/mL, partner 0.007 µg/mL	0.238
S. pneumoniae D39V, first compound 0.375 µg/mL, partner 0.0018 µg/mL	0.0683
S. pneumoniae D39V, first compound 0.375 µg/mL, partner 0.0035 µg/mL	0.0612
S. pneumoniae D39V, first compound 0.375 µg/mL, partner 0.007 µg/mL	0.0585
S. pneumoniae D39V, first compound 0.75 µg/mL, partner 0.0018 µg/mL	0.086
S. pneumoniae D39V, first compound 0.75 µg/mL, partner 0.0035 µg/mL	0.0734
S. pneumoniae D39V, first compound 0.75 µg/mL, partner 0.007 µg/mL	0.0886
S. pneumoniae D39V, first compound 1.5 µg/mL, partner 0.0018 µg/mL	0.0498
S. pneumoniae D39V, first compound 1.5 µg/mL, partner 0.0035 µg/mL	0.0657
S. pneumoniae D39V, first compound 1.5 µg/mL, partner 0.007 µg/mL	0.0651

— the supplement of paper PMC10627819
